From the CheMixHub ionic liquid set

Test: xn = mol fraction of the nth substance listed

CCCCCCCCCCCCCC[n+]1ccccc1.O=C([O-])C(O)c1ccccc1 + C[C@H](N)C(=O)O + O
electrical conductivity [S/m], 101 kPa
Settings | 293.15 K | 298.15 K | 303.15 K | 308.15 K | 313.15 K
x1 = 5.26e-06, x2 = 0.001799 | 0.00177 | 0.00202 | 0.00228 | 0.00255 | 0.00285
x1 = 6.85e-06, x2 = 0 | 0.00248 | 0.00278 | 0.00309 | 0.0034 | 0.0037
x1 = 7.23e-06, x2 = 0.0009002 | 0.00232 | 0.00263 | 0.00296 | 0.00329 | 0.0036
x1 = 1.107e-05, x2 = 0.001799 | 0.00339 | 0.00385 | 0.0043 | 0.00479 | 0.0053
x1 = 1.32e-05, x2 = 0.0009002 | 0.00408 | 0.00462 | 0.00517 | 0.0057 | 0.0063
x1 = 1.424e-05, x2 = 0 | 0.00472 | 0.00529 | 0.00587 | 0.0065 | 0.0071
x1 = 1.688e-05, x2 = 0.001799 | 0.00492 | 0.00558 | 0.00625 | 0.007 | 0.0077
x1 = 1.79e-05, x2 = 0.0009002 | 0.00545 | 0.00618 | 0.0069 | 0.0077 | 0.0084
x1 = 2.126e-05, x2 = 0 | 0.00671 | 0.0076 | 0.0084 | 0.0093 | 0.0101
x1 = 2.178e-05, x2 = 0.001799 | 0.00627 | 0.00713 | 0.008 | 0.0088 | 0.0098
x1 = 2.206e-05, x2 = 0.0009002 | 0.0066 | 0.0075 | 0.0084 | 0.0093 | 0.0102
x1 = 2.64e-05, x2 = 0.0009002 | 0.00784 | 0.0089 | 0.0099 | 0.011 | 0.0121
x1 = 2.686e-05, x2 = 0.001799 | 0.00759 | 0.0086 | 0.0097 | 0.0107 | 0.0118
x1 = 2.811e-05, x2 = 0 | 0.0086 | 0.0097 | 0.0108 | 0.0122 | 0.0131
x1 = 3.092e-05, x2 = 0.0009002 | 0.0091 | 0.0103 | 0.0115 | 0.0128 | 0.014
x1 = 3.158e-05, x2 = 0.001799 | 0.0088 | 0.01 | 0.0112 | 0.0124 | 0.0137
x1 = 3.46e-05, x2 = 0 | 0.0103 | 0.0116 | 0.0129 | 0.0145 | 0.0157
x1 = 3.653e-05, x2 = 0.0009002 | 0.0105 | 0.0119 | 0.0133 | 0.0148 | 0.0163
x1 = 3.702e-05, x2 = 0.001799 | 0.0101 | 0.0114 | 0.0128 | 0.0143 | 0.0158
x1 = 4.108e-05, x2 = 0 | 0.0117 | 0.0131 | 0.0146 | 0.0161 | 0.0179
x1 = 4.376e-05, x2 = 0.0009001 | 0.0119 | 0.0135 | 0.015 | 0.0168 | 0.0186
x1 = 4.392e-05, x2 = 0.001799 | 0.0113 | 0.0128 | 0.0143 | 0.016 | 0.0178
x1 = 4.811e-05, x2 = 0 | 0.0129 | 0.0144 | 0.0161 | 0.0179 | 0.0198
x1 = 5.045e-05, x2 = 0.0009001 | 0.0129 | 0.0146 | 0.0163 | 0.0184 | 0.0203
x1 = 5.136e-05, x2 = 0.001799 | 0.0124 | 0.0139 | 0.0156 | 0.0175 | 0.0195
x1 = 5.388e-05, x2 = 0 | 0.0137 | 0.0154 | 0.0172 | 0.0191 | 0.0211
x1 = 5.768e-05, x2 = 0.0009001 | 0.014 | 0.0158 | 0.0177 | 0.0198 | 0.022
x1 = 5.861e-05, x2 = 0.001799 | 0.0134 | 0.0151 | 0.0169 | 0.019 | 0.0211
x1 = 5.982e-05, x2 = 0 | 0.0145 | 0.0163 | 0.0182 | 0.0202 | 0.0224
x1 = 6.383e-05, x2 = 0.0009001 | 0.0148 | 0.0168 | 0.0188 | 0.021 | 0.0233
x1 = 6.559e-05, x2 = 0 | 0.0153 | 0.0172 | 0.0192 | 0.0213 | 0.0236
x1 = 6.569e-05, x2 = 0.001799 | 0.0143 | 0.0161 | 0.0181 | 0.0201 | 0.0224
x1 = 6.998e-05, x2 = 0.0009001 | 0.0157 | 0.0177 | 0.0198 | 0.0222 | 0.0246
x1 = 7.081e-05, x2 = 0 | 0.016 | 0.018 | 0.02 | 0.0223 | 0.0246
x1 = 7.222e-05, x2 = 0.001799 | 0.0151 | 0.0171 | 0.0192 | 0.0214 | 0.0236
x1 = 7.595e-05, x2 = 0.0009001 | 0.0165 | 0.0187 | 0.0209 | 0.0234 | 0.026
x1 = 7.604e-05, x2 = 0 | 0.0167 | 0.0187 | 0.0209 | 0.0232 | 0.0258
x1 = 7.839e-05, x2 = 0.001799 | 0.0159 | 0.018 | 0.0201 | 0.0225 | 0.0251
x1 = 8.072e-05, x2 = 0 | 0.0173 | 0.0194 | 0.0217 | 0.0241 | 0.0266

CCO + C[C@H](N)C(=O)[O-].C[N+](C)(C)CCO
100 kPa, x2 = 0
Settings | viscosity [mPa·s]
288.13 K | 1.15
289.34 K | 1.12
290.55 K | 1.1
291.74 K | 1.06
292.92 K | 1.03
294.1 K | 1.01
295.28 K | 0.98
296.45 K | 0.96
297.63 K | 0.93
298.8 K | 0.9
299.98 K | 0.88
301.16 K | 0.85
302.33 K | 0.82
303.51 K | 0.8
304.68 K | 0.77
305.86 K | 0.73
307.04 K | 0.71
308.21 K | 0.68

CCO + C[N+](C)(C)CCC[N+]1(C)CCCCC1.N#C[N-]C#N.N#C[N-]C#N
100 kPa, x2 = 0
Settings | viscosity [mPa·s]
293.15 K | 1.19
303.15 K | 0.991
313.15 K | 0.828
323.15 K | 0.705
333.15 K | 0.593

CCO + C[N+](C)(C)CCC[n+]1ccccc1.N#C[N-]C#N.N#C[N-]C#N
100 kPa, x2 = 0
Settings | viscosity [mPa·s]
293.15 K | 1.19
303.15 K | 0.991
313.15 K | 0.828
323.15 K | 0.705
333.15 K | 0.593

CCCCCC[N+]1(C)CCCC1.O=S(=O)([N-]S(=O)(=O)C(F)(F)F)C(F)(F)F + Cc1ccccc1
100 kPa
Settings | viscosity [mPa·s]
293.15 K, x2 = 0.3938 | 37.27
293.15 K, x2 = 0.7993 | 4.124
303.15 K, x2 = 0.5961 | 11.17
308.15 K, x2 = 0.29 | 30.33
308.15 K, x2 = 0.7993 | 3.15
313.15 K, x2 = 0 | 51

CCCC[N+](CCCC)(CCCC)Cc1ccccc1.[Cl-] + NC(=O)CC[C@H](N)C(=O)O + O
electrical conductivity [S/m], 100 kPa, frequency 0.001 MHz
Settings | 293.15 K | 298.15 K | 303.15 K | 308.15 K | 313.15 K
x2 = 0.0001802, x1 = 1.802e-05 | 0.0331 | 0.0352 | 0.0382 | 0.041 | 0.0452
x2 = 0.0001803, x1 = 5.405e-05 | 0.0419 | 0.0441 | 0.0463 | 0.0496 | 0.0536
x2 = 0.0001804, x1 = 9.008e-05 | 0.0513 | 0.0542 | 0.0582 | 0.0612 | 0.0654
x2 = 0.0004504, x1 = 1.801e-05 | 0.0408 | 0.0453 | 0.0486 | 0.0523 | 0.0553
x2 = 0.0004507, x1 = 5.403e-05 | 0.0492 | 0.0543 | 0.057 | 0.0597 | 0.0642
x2 = 0.000451, x1 = 9.005e-05 | 0.0592 | 0.0641 | 0.067 | 0.069 | 0.0728
x2 = 0.0007205, x1 = 1.801e-05 | 0.0479 | 0.0557 | 0.0582 | 0.0614 | 0.0662
x2 = 0.0007209, x1 = 5.402e-05 | 0.0619 | 0.0683 | 0.0702 | 0.0724 | 0.0764
x2 = 0.0007213, x1 = 9.003e-05 | 0.0692 | 0.0768 | 0.0774 | 0.0796 | 0.0867
x2 = 0.0009904, x1 = 1.8e-05 | 0.0551 | 0.064 | 0.0692 | 0.071 | 0.0769
x2 = 0.000991, x1 = 5.4e-05 | 0.0713 | 0.0784 | 0.0819 | 0.0821 | 0.0806
x2 = 0.0009916, x1 = 9e-05 | 0.0768 | 0.0871 | 0.0876 | 0.0906 | 0.1
x2 = 0.00126, x1 = 1.8e-05 | 0.0646 | 0.0756 | 0.079 | 0.0819 | 0.0865
x2 = 0.001261, x1 = 5.399e-05 | 0.0809 | 0.0902 | 0.0923 | 0.0943 | 0.103
x2 = 0.001262, x1 = 8.998e-05 | 0.0911 | 0.098 | 0.0989 | 0.101 | 0.113
x2 = 0.00153, x1 = 1.799e-05 | 0.0733 | 0.0847 | 0.0896 | 0.0903 | 0.0994
x2 = 0.001531, x1 = 5.397e-05 | 0.0868 | 0.0975 | 0.103 | 0.105 | 0.116
x2 = 0.001532, x1 = 8.995e-05 | 0.099 | 0.106 | 0.108 | 0.109 | 0.119

viscosity [mPa·s], 100 kPa
Settings | 293.15 K | 298.15 K | 303.15 K | 308.15 K | 313.15 K
x2 = 0.0001802, x1 = 1.802e-05 | 0.961 | 0.921 | 0.884 | – | –
x2 = 0.0001803, x1 = 5.405e-05 | 0.969 | 0.929 | 0.888 | – | –
x2 = 0.0001804, x1 = 9.008e-05 | 0.98 | 0.939 | 0.9 | – | –
x2 = 0.0004504, x1 = 1.801e-05 | 0.969 | 0.93 | 0.893 | 0.858 | 0.803
x2 = 0.0004507, x1 = 5.403e-05 | 0.978 | 0.938 | 0.896 | 0.863 | 0.808
x2 = 0.000451, x1 = 9.005e-05 | 0.99 | 0.949 | 0.909 | 0.869 | 0.817
x2 = 0.0007205, x1 = 1.801e-05 | 0.977 | 0.939 | 0.902 | 0.867 | 0.812
x2 = 0.0007209, x1 = 5.402e-05 | 0.987 | 0.947 | 0.906 | 0.872 | 0.818
x2 = 0.0007213, x1 = 9.003e-05 | 1 | 0.96 | 0.919 | 0.88 | 0.827
x2 = 0.0009904, x1 = 1.8e-05 | 0.985 | 0.948 | 0.912 | 0.877 | 0.823
x2 = 0.000991, x1 = 5.4e-05 | 0.996 | 0.957 | 0.917 | 0.882 | 0.827
x2 = 0.0009916, x1 = 9e-05 | 1.01 | 0.97 | 0.929 | 0.891 | 0.838
x2 = 0.00126, x1 = 1.8e-05 | 0.994 | 0.956 | 0.921 | 0.887 | 0.833
x2 = 0.001261, x1 = 5.399e-05 | 1.005 | 0.967 | 0.926 | 0.894 | 0.838
x2 = 0.001262, x1 = 8.998e-05 | 1.021 | 0.98 | 0.939 | 0.901 | 0.849
x2 = 0.00153, x1 = 1.799e-05 | 1.002 | 0.965 | 0.929 | 0.897 | 0.843
x2 = 0.001531, x1 = 5.397e-05 | 1.014 | 0.977 | 0.936 | 0.904 | 0.849
x2 = 0.001532, x1 = 8.995e-05 | 1.029 | 0.99 | 0.95 | 0.912 | 0.86
